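How tested: cells in 96-well plates exposed to compound for 48 hours at five concentrations. GI50: concentration for 50% inhibition of growth. TGI: total growth inhibition.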
Assays:
Test in all cases: NCI anticancer screen, dose series, 48 h
786-0 renal = system: 786-0 renal
A498 renal = system: A498 renal
A549 NSCLC = system: A549 NSCLC
ACHN renal = system: ACHN renal
BT-549 breast = system: BT-549 breast
CAKI-1 renal = system: CAKI-1 renal
CCRF-CEM leukemia = system: CCRF-CEM leukemia
COLO 205 colon = system: COLO 205 colon
DU-145 prostate = system: DU-145 prostate
EKVX NSCLC = system: EKVX NSCLC
HCC-2998 colon = system: HCC-2998 colon
HCT-116 colon = system: HCT-116 colon
HCT-15 colon = system: HCT-15 colon
HL-60(TB) leukemia = system: HL-60(TB) leukemia
HOP-62 NSCLC = system: HOP-62 NSCLC
HOP-92 NSCLC = system: HOP-92 NSCLC
HS 578T breast = system: HS 578T breast
HT29 colon = system: HT29 colon
IGROV1 ovarian = system: IGROV1 ovarian
K-562 leukemia = system: K-562 leukemia
KM12 colon = system: KM12 colon
LOX IMVI melanoma = system: LOX IMVI melanoma
M14 melanoma = system: M14 melanoma
MALME-3M melanoma = system: MALME-3M melanoma
MCF7 breast = system: MCF7 breast
MDA-MB-231 breast = system: MDA-MB-231 breast
MDA-MB-435 = system: MDA-MB-435
MDA-MB-468 breast = system: MDA-MB-468 breast
MOLT-4 leukemia = system: MOLT-4 leukemia

`CN(C)c1nc(NCCNS(=O)(=O)c2ccc(C(=O)/C=C/c3ccc(F)cc3)cc2)nc(Nc2ccc(F)cc2)n1` showed a GI50 (786-0 renal) of 2.56 µM, a TGI (786-0 renal) of 6.3 µM and a GI50 (A498 renal) of 6.21 µM. For the same molecule, the TGI (A498 renal) was 19.3 µM, the GI50 (A549 NSCLC) was 3.41 µM and the TGI (A549 NSCLC) was 14.2 µM. It also gave a GI50 (ACHN renal) of 3.13 µM, a TGI (ACHN renal) of 10.9 µM and a GI50 (BT-549 breast) of 4.87 µM. For the same molecule, the TGI (BT-549 breast) was 17.1 µM, the GI50 (CAKI-1 renal) was 3.01 µM and the TGI (CAKI-1 renal) was 12.7 µM. For the same molecule, the GI50 (CCRF-CEM leukemia) was 3.42 µM, the TGI (CCRF-CEM leukemia) was over 100 µM and the GI50 (COLO 205 colon) was 2.38 µM. The TGI (COLO 205 colon) was 6.56 µM, the GI50 (DU-145 prostate) was 3.94 µM and the TGI (DU-145 prostate) was 14 µM. The GI50 (EKVX NSCLC) was 2.95 µM, the TGI (EKVX NSCLC) was 10.9 µM and the GI50 (HCC-2998 colon) was 1.8 µM. The TGI (HCC-2998 colon) was 3.45 µM, the GI50 (HCT-116 colon) was 1.6 µM and the TGI (HCT-116 colon) was 3.01 µM. The GI50 (HCT-15 colon) was 1.99 µM, the TGI (HCT-15 colon) was 4.28 µM and the GI50 (HL-60(TB) leukemia) was 2.04 µM. The TGI (HL-60(TB) leukemia) was 6.34 µM, the GI50 (HOP-62 NSCLC) was 8.39 µM and the TGI (HOP-62 NSCLC) was 23.6 µM. It also gave a GI50 (HOP-92 NSCLC) of 2.49 µM, a TGI (HOP-92 NSCLC) of 6.51 µM and a GI50 (HS 578T breast) of 6.3 µM. It also gave a TGI (HS 578T breast) of 71.5 µM, a GI50 (HT29 colon) of 1.9 µM and a TGI (HT29 colon) of 3.65 µM. It also gave a GI50 (IGROV1 ovarian) of 4.27 µM, a TGI (IGROV1 ovarian) of 15 µM and a GI50 (K-562 leukemia) of 2.42 µM. For the same molecule, the TGI (K-562 leukemia) was 6.8 µM, the GI50 (KM12 colon) was 2 µM and the TGI (KM12 colon) was 4.41 µM. It also gave a GI50 (LOX IMVI melanoma) of 1.66 µM, a TGI (LOX IMVI melanoma) of 3.07 µM and a GI50 (M14 melanoma) of 2.6 µM. For the same molecule, the TGI (M14 melanoma) was 8.29 µM, the GI50 (MALME-3M melanoma) was 3.42 µM and the TGI (MALME-3M melanoma) was 12.4 µM. The GI50 (MCF7 breast) was 1.8 µM, the TGI (MCF7 breast) was 3.46 µM and the GI50 (MDA-MB-231 breast) was 2.64 µM. For the same molecule, the TGI (MDA-MB-231 breast) was 8.38 µM, the GI50 (MDA-MB-435) was 2.32 µM and the TGI (MDA-MB-435) was 5.69 µM. For the same molecule, the GI50 (MDA-MB-468 breast) was 2.55 µM, the TGI (MDA-MB-468 breast) was 8.09 µM and the GI50 (MOLT-4 leukemia) was 2.5 µM. The TGI (MOLT-4 leukemia) was 6.5 µM.
